One series addresses T1, IRAP (Homo sapiens, UniProt Q9UIQ6).
T1 construct: expressed in transfected cells; host or cells: HEK 293T
The experiment in a line: IRAP enzymatic assay (hydrolysis of Leu-MCA). Format: biochemical. Particulars: substrate Leu-MCA, solubilized membranes of HEK 293T cells transfected with IRAP. The method, then: An in vitro enzymatic assay was used to initially assess IRAP inhibitory activity.
After solubilization, the membranes were pelleted by centrifugation at 23,100 g for 15 min at 4° C., and the supernatant was reserved as the source of IRAP activity. The enzymatic activities of IRAP were determined by the hydrolysis of the synthetic substrate Leu-MCA (Sigma-Aldrich, Missouri, USA) monitored by the release of a fluorogenic product, MCA, at excitation and emission wavelengths of 380 and 440 nm, respectively. Assays were performed in 96-well plates; each well contains between […] solubilized membrane protein, a range of concentration of substrate in a final volume of 100 μL 50 mM Tris-HCl buffer (pH 7.4). Non-specific hydrolysis of the substrate was corrected by subtracting the emission from incubations with membranes transfected with empty vector. Reactions proceeded at 37° C. for 30 min within a thermostatted FLEX station fluorescence microplate reader (Molecular Devices, Sunnyvale, Calif.). […] Km values of IRAP for Leu-MCA were determined from the kinetic studies. […] All data obtained were from at least three separate experiments performed in duplicate.

A further series concerns the target T2, Aminopeptidase N (Sus scrofa, UniProt P15145).
T2 construct: purchased Sigma Aldrich
T2 sequence (P15145 1-963): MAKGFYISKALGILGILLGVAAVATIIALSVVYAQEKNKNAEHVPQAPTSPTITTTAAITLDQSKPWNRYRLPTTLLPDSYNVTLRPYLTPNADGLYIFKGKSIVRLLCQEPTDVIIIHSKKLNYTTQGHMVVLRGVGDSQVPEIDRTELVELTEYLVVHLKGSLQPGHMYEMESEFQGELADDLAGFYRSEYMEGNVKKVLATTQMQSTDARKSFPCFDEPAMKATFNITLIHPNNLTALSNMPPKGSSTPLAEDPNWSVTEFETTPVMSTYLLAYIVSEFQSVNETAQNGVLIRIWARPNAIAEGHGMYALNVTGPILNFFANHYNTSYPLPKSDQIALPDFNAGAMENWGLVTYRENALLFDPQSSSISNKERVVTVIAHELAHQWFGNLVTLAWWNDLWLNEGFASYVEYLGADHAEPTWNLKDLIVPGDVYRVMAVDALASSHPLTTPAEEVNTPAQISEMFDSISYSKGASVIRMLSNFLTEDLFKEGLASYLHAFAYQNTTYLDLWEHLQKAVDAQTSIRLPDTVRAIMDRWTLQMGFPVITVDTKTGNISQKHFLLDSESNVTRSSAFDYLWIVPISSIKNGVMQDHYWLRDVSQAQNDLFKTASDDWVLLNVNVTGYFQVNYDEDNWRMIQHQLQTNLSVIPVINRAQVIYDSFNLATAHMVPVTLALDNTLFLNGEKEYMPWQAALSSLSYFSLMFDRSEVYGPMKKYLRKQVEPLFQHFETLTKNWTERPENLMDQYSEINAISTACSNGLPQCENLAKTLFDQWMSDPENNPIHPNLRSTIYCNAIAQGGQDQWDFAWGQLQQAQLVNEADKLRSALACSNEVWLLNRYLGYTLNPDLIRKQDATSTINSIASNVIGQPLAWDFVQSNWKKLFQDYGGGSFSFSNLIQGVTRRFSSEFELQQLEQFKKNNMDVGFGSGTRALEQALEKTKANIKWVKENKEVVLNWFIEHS
The series is described as follows: Aminopeptidase N assay. Format: biochemical. Particulars: 10 μM; read-out: % inhibition of the catalytic activity of the enzyme. The protocol: Aminopeptidase N assay. 5 mU of aminopeptidase M (Sigma Aldrich) was incubated with 100 μM of substrate alanine-β-naphthylamide (Sigma Aldrich) in Tris buffered saline (50 mM Tris-HCl, 150 mM NaCl pH 7.5) at 25° C. IRAP inhibitors (1-10 μM) were added after 1 minute and fluorescence at 405 nm was followed.
Limited inhibition of control enzymes was observed.

For series [1], the system named is rats. The series is described as follows: Novel object recognition task. Format: in vivo, rat. The note with it: for Recognition Index: rats, n=10/group. The protocol: (§1) All experiments were performed according to the National Health and Medical Research Council of Australia “Code of practise for the care and use of animals for scientific purposes”. Male Spraque Dawley rats, (250-270 g) are housed individually and given water and standard rat chow ad libitum. On the day of surgery, the rats were anaesthetized with 5% isofluorane, placed in a stereotaxic frame and maintained on 2% isofluorane for the duration of the cannula implantation procedure. The rats were stereotaxically implanted with chronic indwelling cannula (Plastics One) into the cerebral lateral ventricles using the following flat skull coordinates 0.8 mm posterior to Bregma, 1.55 mm lateral to midline and 3.5 mm ventral to the dura. The cannula was then secured to the skull with stainless steel screws and dental cement. Seven days following surgery, proper cannula placement was verified by a bolus injection of angiotensin II (1 nmol/μl).
The rats are allowed at least 5 days post-operative recovery prior to use in any behavioural paradigms. On the day of the acquisition trial, the rats were habituated for 5 min in the testing box (made from grey perspex of dimensions 60 cm width×60 cm length×50 cm height) in diffuse dim light and then returned to their home cage. The animals were then rested for at least 2 h and then injected with 1 nmol or 0.1 nmol Compound 2 in 2 μl of 10% dimethyl sulfoxide (DMSO). Control animals received 2 μl of 10% DMSO. Following drug administration, the rats were returned to their home cage for 5 min and then placed in the testing box facing the opposite direction to 2 identical objects that have been secured to the floor in adjacent corners of the box. The rats were allowed 5 min to explore the objects and the definition of explore is that the animal's nose is less than 2 cm from object when it is facing the object. […] The recognition index was determined as the time spent exploring the novel object minus the time spent on the familiar object divided by the time spent on both object.

The test system of series [2] is rats. The series is described as follows: Elevated plus maze (stress or anxiety). In kind it is in vivo, rat. The note with it: for Time spent in the open arm (% control): rats, n=8 per group. The method, then:
as §1
The elevated plus maze was used to investigate the potential effect of IRAP inhibitors on stress or anxiety. The elevated plus maze consists of two open arms (70×10 cm) with a 5 cm high surrounding wall and two enclosed arms (70×10 cm) with a 27 cm high surrounding wall. The floor of the open and closed arms are white laminate, the open arm walls are clear perspex, and the closed arms walls dark grey perspex. The maze is elevated 85 cm above the ground in the centre of a room that is lit by overhead lights generating 1241 ux. […] The time spent in the closed arms compared to the open arms was a measure of the anxiety status of the animals.

Setting [3] is: 0.1 nmol intracerebroventricularly.
Setting [4] is: 1 nmol intracerebroventricularly.

T1 sequence (Q9UIQ6 whole entry): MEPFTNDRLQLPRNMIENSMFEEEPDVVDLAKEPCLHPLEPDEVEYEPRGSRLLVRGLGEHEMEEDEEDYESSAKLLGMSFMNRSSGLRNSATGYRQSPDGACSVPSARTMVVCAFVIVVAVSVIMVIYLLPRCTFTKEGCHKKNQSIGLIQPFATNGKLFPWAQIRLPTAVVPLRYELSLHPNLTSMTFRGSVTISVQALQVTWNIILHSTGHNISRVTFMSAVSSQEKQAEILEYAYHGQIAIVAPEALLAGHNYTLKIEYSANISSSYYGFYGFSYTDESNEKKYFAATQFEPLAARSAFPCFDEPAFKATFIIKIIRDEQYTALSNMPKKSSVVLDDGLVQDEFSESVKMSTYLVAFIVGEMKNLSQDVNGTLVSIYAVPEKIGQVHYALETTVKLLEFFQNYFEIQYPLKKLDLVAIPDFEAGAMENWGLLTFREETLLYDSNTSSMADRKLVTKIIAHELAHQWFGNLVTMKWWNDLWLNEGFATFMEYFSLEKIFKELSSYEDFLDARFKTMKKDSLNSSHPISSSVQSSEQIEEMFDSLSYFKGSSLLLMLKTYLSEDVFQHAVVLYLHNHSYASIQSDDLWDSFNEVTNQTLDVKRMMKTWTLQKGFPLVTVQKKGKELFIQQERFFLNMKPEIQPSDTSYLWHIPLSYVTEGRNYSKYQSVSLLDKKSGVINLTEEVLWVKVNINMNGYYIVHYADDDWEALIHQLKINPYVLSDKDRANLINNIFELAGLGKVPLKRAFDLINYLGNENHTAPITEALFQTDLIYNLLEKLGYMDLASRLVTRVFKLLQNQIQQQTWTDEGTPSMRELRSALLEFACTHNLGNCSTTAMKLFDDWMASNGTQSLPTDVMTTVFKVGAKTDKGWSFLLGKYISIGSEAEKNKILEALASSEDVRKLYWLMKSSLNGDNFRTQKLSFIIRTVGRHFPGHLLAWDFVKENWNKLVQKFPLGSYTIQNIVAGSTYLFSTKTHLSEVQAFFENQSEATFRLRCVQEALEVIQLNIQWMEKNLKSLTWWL

On to `CCOC(=O)C1=C(NC(C)=O)Oc2cc(O)ccc2C1c1cccnc1` (stereo not drawn) [Compound 2, Ethyl 2-(acetylamino)-7-hydroxy-4-pyridin-3-yl-4H-chromene-3-carboxylate], for which the half-inhibitory concentration (IC50) (usually the concentration needed to halve the response being measured) against IRAP amounted to 790 nM. The Ki on IRAP (calculated from IC50=Ki(1+[S]/Km), read-out: K1) is 480 nM. In addition, on Aminopeptidase N, the inhibition – broadly, how much of the control response was suppressed – at 10 µM turned out to be 13%. Also, the “Recognition Index” value with rats [1] (setting [3]) is listed as 35.82 ± 7.30; in the series with rats [1] (setting [4]), 45.09 ± 9.97. In addition, in the series on rats [1] (1 and 0.1 nmole intracerebroventricularly, after 24 h, p<0.05), the “recognition of a novel object compared to vehicle treated control rats” value is given as “better recognition of a novel object”. Besides, the “Time spent in the open arm (% control)” value in the series with rats [2] (setting [3]) worked out at 121.62 ± 28.26 % control; with rats [2] (setting [4]), 127.88 ± 19.18 % control. Besides, the “stress compared to vehicle, by time spent in the open arm of the elevated plus maze” value in the series with rats [2] (0.1 and 1 nmol intracerebroventricularly) is given as “not significantly more or less stressed”.

Values taken from patent publication US8377963B2, “Insulin-regulated aminopeptidase (IRAP) inhibitors and uses thereof” (Howard Florey Institute, priority 2007, dated 2013).
